Key:
[1] = system: man; settings: cited from earlier work; for toxicity for man: prior art fumigants
[2] = system: parasites; settings: prior art fumigants; cited from earlier work
[3] = treated products
Text: (§1) Arthropods were introduced both on nonbiological supports such as glass, printed paper, differently colored fabrics (cotton, silk, linen, skin, wool and synthetic) and on biological materials such as ham, hard wheat pasta and hard crust cheeses. […] Also treated was biological material infested by mites, larvae and adult forms of cheese fly and Galleria mellonella using the entire set of tests described above.

[4] = system: mites
Description: (§2) Laboratory tests were carried out preliminarily both in a ventilated environment and a confined environment by means of treatments by contact or inhalation with 100% commercial n-Hexane, for the sake of brevity called hereinafter “Hexane” with reference to the performance of the practical experimental tests whose execution procedures follow.

[5] = system: insects
Description: as §2

[6] = system: mites, larvae and adult forms of cheese fly
Description: Subsequent tests were conducted in a closed chamber consisting of a box (70 cm×50 cm by 120 cm high) with polypropylene walls as this material is among those not attacked by Hexane such as other synthetic plastic materials among which polyethylene, polyester, polyethylene terephthalates in addition to aluminum, copper, carbon steel and stainless steel. […] On the bottom of this box was located a circular aluminum tank (dia. 22 cm×height 15 cm) on the bottom of which was arranged a copper coil in which was circulated hot liquid to heat to evaporation the Hexane fed into the tank. The material to be tested was placed in the box which was then closed hermetically.
Tests were performed with two different techniques, to wit, at reduced pressure and at atmospheric pressure.
Both by the reduced pressure technique and the atmospheric pressure technique quantities of Hexane variable from 50 ml to 800 ml were fed through a second tap having in it a silicon tube drawing from the bottom of the aluminum tank. By circulating hot liquid in the heating coil the Hexane present in liquid phase in the tank was held at a temperature of 70° C. to 75° C. for the entire period of experimentation in order to achieve complete evaporation of the Hexane. A blower was placed on the bottom of the box for homogeneous distribution of the Hexane vapors in the treatment environment.
The temperature in the box during all the tests and as a function of the material to be treated (biological or not), was included in the range 5° C. to 75° C. The duration of the treatment was between 1 and 72 hours for both procedures (atmospheric pressure or reduced pressure). In the reduced-pressure tests the pressure was held in a range of 0.5N/cm2 to 5N/cm2.
At the end of treatment time the box was reopened and the Hexane vapors allowed to free themselves outward.
as §1

In the case of `ClC(Cl)(Cl)Cl` [Carbon tetrachloride], the toxicity for man [1] is given as “less toxic than carbon sulfide” and the “insecticidal / parasiticidal effectiveness” value [2] is given as “slight parasiticidal power”.
In the case of `CCCCCC` [Hexane, n-Hexane], the “accumulation of toxic substances after treatment” value [3] is reported as “no accumulation of toxic substances”, the “mites dead 15 minutes after treatment” value ([4]; Petri capsule, treatments of 15 minutes to two hours) is reported as “all the mites present” and the “toxic activity on arthropods by inhalation” value ([4]; Petri capsule, verifiable after only a few minutes treatment) is reported as “strong toxic activity”. The “arthropods returned to life within 15 days” value ([4]; returned to optimal conditions 18-20 °C, 80% RH after treatment) was “none of them returned to life”, the “toxic effect on eggs (hatching)” value ([4]; treatment for longer periods of time) was “strong hatching reduction” and the “toxic effect on mites by contact” value ([4]; ventilated environment) was “weak, temporary toxic effect”. For the same compound, the “abatement power on flies, mosquitoes, cockroaches, corrodentia, thysanura” value ([5]; contact) was “high abatement power”, the “toxic effect on insects by contact” value ([5]; ventilated environment) was “significant toxic effect” and the “effect on mites and insects infesting cheese products, mattresses, cushions, sheets, carpet, drapes” value ([6]; Hexane vapors, closed chamber) was “same result”. The “effect on parasites infesting ham and dressed pork products” value ([6]; after 2 hours exposure to Hexane vapors, mites, larvae and adult forms of cheese fly) was “desired effect on nearly all parasites”, the “reclamation of the product (ham, dressed pork products)” value ([6]; after 48 hours of treatment) was “complete reclamation” and the “outcome of closed chamber tests compared with Petri capsule” value ([6]; approximately 720 g per m3 of air, up to 72 hours, surrounding temperature, atmospheric pressure) was “confirmed the results obtained in Petri capsule”. The “concentration at which parasiticidal treatment is already considerably effective” value ([6]; inhalation) was 250 g per cubic meter of air, the “toxicity index for man following contact” value ([1]; contact) was “low toxicity index” and the “acute toxicity index for man by inhalation” value ([1]; inhalation) was “high acute toxicity index”.
In the case of `S=C=S` [carbon sulfide], the toxicity for man [1] is listed as “high toxicity” and the “insecticidal / parasiticidal effectiveness” value [2] is listed as “high insecticidal effectiveness”.
For `CBr` [Methyl bromide], the toxicity for man [1] is listed as “very poisonous”.
In the case of `C1CO1` [Ethylene oxide], the toxicity for man [1] is given as “highly toxic”.
